Data: patent US20030003492A1, “Colorimetric nanocrystal sensors, methods of making, and use thereof” (priority 2001, published 2003)

How the values were obtained:
[1] = Binding to simple sugars like glucosamine; details: much lower affinity than for lipid A
Binding to lipid A = details: binding of lipid A; read-out: dissociation constant

For “tetratryptophan ter-cyclopentane [TWTCP]”, the Kd [1] was roughly 20 µM and the Kd (Binding to lipid A) was 0.592 µM.
